Experiment [1] has as its target T1, human LXRα (Homo sapiens, UniProt Q13133).
T1 construct: biotin (biotinylated); made in house; host or cells: E. coli (crude extract)
T1 sequence (Q13133 1-447): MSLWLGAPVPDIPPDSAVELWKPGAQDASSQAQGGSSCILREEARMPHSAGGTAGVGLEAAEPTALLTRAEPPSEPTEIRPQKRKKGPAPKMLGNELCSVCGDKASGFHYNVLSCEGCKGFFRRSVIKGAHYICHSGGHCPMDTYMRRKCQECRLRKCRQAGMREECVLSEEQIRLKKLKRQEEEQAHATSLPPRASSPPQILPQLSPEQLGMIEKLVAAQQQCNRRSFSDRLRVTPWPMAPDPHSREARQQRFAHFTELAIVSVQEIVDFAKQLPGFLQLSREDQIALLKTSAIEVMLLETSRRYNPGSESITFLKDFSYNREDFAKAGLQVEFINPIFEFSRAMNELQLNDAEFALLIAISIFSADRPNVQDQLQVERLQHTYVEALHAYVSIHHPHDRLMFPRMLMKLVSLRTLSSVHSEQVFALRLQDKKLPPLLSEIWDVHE
Briefly: Ligand-binding test procedure for human LXRα (3H T0901317 tracer, flash plates). Particulars: biotinylated hLXRα from E. coli extract, +4° C. over night, read-out: hLXRa binding assay Mean IC50. On the procedure: II. Ligand-Binding Test Procedure for Human LXRα.
(§1) Buffer: 100 mM KCl, 100 mM TRIS (pH 7.4 at +4° C.), 8.6% glycerol, 0.1 mM PMSF*, 2 mM MTG*, 0.2% CHAPS (* not used in wash buffer)
Receptor source: E. coli extract from cells expressing biotinylated hLXRα. Extract was made in a similar buffer as above, but with 50 mM TRIS.
(§2) Washed streptavidin and coated flash plates with wash buffer.
(§3) Diluted receptor extract to give Bmax ˜4000 cpm and add to the wells.
(§4) Wrapped the plates in aluminum foil and stored them at +4° C. over night.
(§5) Made a dilution series in DMSO of the test ligands.
(§6) Made a 5 nM solution of the radioactive tracer in buffer.
Mixed 250 μl diluted tracer with 5 μl of the test ligand from each concentration of the dilution series.
(§7) Washed the receptor-coated flash plates.
(§8) Added 200 μl per well of the ligand/radiolabel mixture to the receptor-coated flash plates.
(§9) Wrapped the plates in aluminum foil and incubate at +4° C. over night.
(§10) Aspirated wells, and wash the flashed plates. Sealed the plate.
(§11) Measured the remaining radioactivity in the plate.

The target of experiment [2] is T2, human LXRβ (Homo sapiens, UniProt P55055).
T2 construct: biotin (biotinylated); made in house; host or cells: E. coli (crude extract)
T2 sequence (P55055 1-460): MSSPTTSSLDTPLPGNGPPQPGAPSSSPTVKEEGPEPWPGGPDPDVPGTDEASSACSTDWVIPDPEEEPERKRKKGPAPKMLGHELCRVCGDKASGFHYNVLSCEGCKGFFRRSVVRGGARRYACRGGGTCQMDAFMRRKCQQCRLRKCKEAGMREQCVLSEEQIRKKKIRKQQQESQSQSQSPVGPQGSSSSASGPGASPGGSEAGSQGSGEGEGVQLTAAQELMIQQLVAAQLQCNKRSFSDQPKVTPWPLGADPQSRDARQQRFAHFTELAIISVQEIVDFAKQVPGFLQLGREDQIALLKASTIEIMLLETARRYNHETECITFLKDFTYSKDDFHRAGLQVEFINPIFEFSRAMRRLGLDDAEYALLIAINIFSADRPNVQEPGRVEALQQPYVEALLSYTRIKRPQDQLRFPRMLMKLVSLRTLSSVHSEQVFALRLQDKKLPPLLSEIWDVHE
Briefly: Ligand-binding test procedure for human LXRβ (3H T0901317 tracer, flash plates). Particulars: biotinylated hLXRβ from E. coli extract, +4° C. over night, read-out: hLXRB binding assay Mean IC50. On the procedure:
I. Ligand-Binding Test Procedure for Human LXRβ.
as §1
Receptor source: E. coli extract from cells expressing biotinylated hLXRβ. Extract was made in a similar buffer as above, but with 50 mM TRIS.
as §2, §3, §4, §5, §6
Mixed 250 μl diluted tracer with 50 of the test ligand from each concentration of the dilution series.
as §7, §8, §9, §10, §11

As a reminder, the pIC50 is −log10 of the IC50, conventionally taken in molar units.

pIC50: −log10 of the molar value.

For `Cc1nc(-c2cc(Oc3cccc(S(=O)(=O)C(C)C)c3)ccc2Cl)c2cccc(C(F)(F)F)c2n1` [Example 60, 4-{2-chloro-5-[3-(isopropylsulfonyl)phenoxy]phenyl}-2-methyl-8-(trifluoromethyl)quinazoline], the pIC50 in experiment [1] was 6.28; in experiment [2], 7.80.
For `CC(C)S(=O)(=O)c1cccc(Oc2cccc(-c3ncnc4c(C(F)(F)F)cccc34)c2)c1` [Example 6, 4-{3-[3-(isopropylsulfonyl)phenoxy]phenyl}-8-(trifluoromethyl)quinazoline], in that order: 5.99 and 7.20.
Taken in the same sequence, the figures for `CCCS(=O)(=O)c1ccc(Oc2cccc(-c3ncnc4c(C(F)(F)F)cccc34)c2)cc1` [Example 12, 4-{3-[4-(propylsulfonyl)phenoxy]phenyl}-8-(trifluoromethyl)quinazoline] were < 6.00 and < 6.00.
For the compound `CS(=O)(=O)c1cccc(COc2cccc(-c3ncnc4c(C(F)(F)F)cccc34)c2)c1` [Example 25, 4-(3-{[3-(methylsulfonyl)benzyl]oxy}phenyl)-8-(trifluoromethyl)quinazoline], the pIC50 in experiment [1] was 5.55; in experiment [2], 6.55.
For `COCCCS(=O)(=O)c1cccc(Oc2cccc(-c3ncnc4c(C(F)(F)F)cccc34)c2)c1` [Example 7, 4-(3-{3-[(3-methoxypropyl)sulfonyl]phenoxy}phenyl)-8-(trifluoromethyl)quinazoline], in that order: 5.30 and 6.19.
Taken in the same sequence, the figures for `O=S(=O)(CCCO)c1cccc(Oc2cccc(-c3ncnc4c(C(F)(F)F)cccc34)c2)c1` [Example 18, 3-[(3-{3-[8-(trifluoromethyl)quinazolin-4-yl]phenoxy}phenyl)sulfonyl]propan-1-ol] were 5.45 and 6.39.
Taken in the same sequence, the figures for `CC(C)(C(=O)O)c1ccc(COc2cccc(-c3ncnc4c(C(F)(F)F)cccc34)c2)cc1` [Example 44, 2-methyl-2-[4-({3-[8-(trifluoromethyl)quinazolin-4-yl]phenoxy}methyl)phenyl]propanoic acid] were < 6.00 and < 6.00.
Turning to `Cc1nc(-c2cc(Oc3cccc(S(C)(=O)=O)c3)ccc2Cl)c2cccc(C(F)(F)F)c2n1` [Example 58, 4-{2-chloro-5-[3-(methylsulfonyl)phenoxy]phenyl}-2-methyl-8-(trifluoromethyl)quinazoline], the pIC50 was 5.87 in experiment [1] and 7.70 in experiment [2].
Take `O=S(=O)(CCCOC1CCCCO1)c1cccc(Oc2ccc(F)c(-c3ncnc4c(Cl)cccc34)c2)c1` (centres unmarked) [Example 69, 8-chloro-4-[2-fluoro-5-(3-{[3-(tetrahydro-2H-pyran-2-yloxy)propyl]sulfonyl}phenoxy)phenyl]quinazoline]: the pIC50 was 6.58 in experiment [1] and 7.02 in experiment [2].
Taken in the same sequence, the figures for `CC(C)c1nc(-c2cccc(-c3cccc(S(C)(=O)=O)c3)c2)c2cccc(C(F)(F)F)c2n1` [Example 42, 2-isopropyl-4-[3′-(methylsulfonyl)biphenyl-3-yl]-8-(trifluoromethyl)quinazoline] were 5.49 and 6.34.
Taken in the same sequence, the figures for `CCS(=O)(=O)c1cc(F)cc(Oc2ccc(F)c(-c3ncnc4c(Cl)cccc34)c2)c1` [Example 65, 8-chloro-4-{5-[3-(ethylsulfonyl)-5-fluorophenoxy]-2-fluorophenyl}quinazoline] were 5.53 and 6.82.
For `CS(=O)(=O)c1cccc(Oc2ccc(Cl)c(-c3ncnc4c(Cl)cccc34)c2)c1` [Example 78, 8-chloro-4-{2-chloro-5-[3-(methylsulfonyl)phenoxy]phenyl}quinazoline], in that order: 6.49 and 7.59.
Regarding `COc1cccc2c(-c3cc(Oc4cccc(S(C)(=O)=O)c4)ccc3Cl)ncnc12` [Example 77, 4-{2-chloro-5-[3-(methylsulfonyl)phenoxy]phenyl}-8-methoxyquinazoline], the values for the pIC50 in experiment [1] and in experiment [2] were 4.98 and 6.46, respectively.
Taken in the same sequence, the figures for `CS(=O)(=O)c1cc(F)cc(Oc2ccc(F)c(-c3ncnc4c(C(F)(F)F)cccc34)c2)c1` [Example 55, 4-{2-fluoro-5-[3-fluoro-5-(methylsulfonyl)phenoxy]phenyl}-8-(trifluoromethyl)quinazoline] were 6.11 and 7.46.
On to `CS(=O)(=O)c1ccc(Oc2cccc(-c3ncnc4c(C(F)(F)F)cccc34)c2)cc1` [Example 10, 4-{3-[4-(methylsulfonyl)phenoxy]phenyl}-8-(trifluoromethyl)quinazoline], for which the pIC50 in experiment [1] is 4.58; in experiment [2], 5.44.
Taken in the same sequence, the figures for `CC(C)CCS(=O)(=O)c1cccc(Oc2cccc(-c3ncnc4c(C(F)(F)F)cccc34)c2)c1` [Example 17, 4-(3-{3-[(3-methylbutyl)sulfonyl]phenoxy}phenyl)-8-(trifluoromethyl)quinazoline] were < 6.00 and < 6.00.
Taken in the same sequence, the figures for `CS(=O)(=O)c1cccc(Oc2ccc(F)c(-c3ncnc4c(C(F)(F)F)cccc34)c2)c1` [Example 52, 4-{2-fluoro-5-[3-(methylsulfonyl)phenoxy]phenyl}-8-(trifluoromethyl)quinazoline] were 6.55 and 7.85.
For `CCS(=O)(=O)c1cccc(Oc2cccc(-c3ncnc4c(C(F)(F)F)cccc34)c2)c1` [Example 5, 4-{3-[3-(ethylsulfonyl)phenoxy]phenyl}-8-(trifluoromethyl)quinazoline], in that order: 5.80 and 7.00.
Consider `CS(=O)(=O)c1cccc(Oc2ccc(F)c(-c3ncnc4c(Cl)cccc34)c2)c1` [Example 75, 8-chloro-4-{2-fluoro-5-[3-(methylsulfonyl)phenoxy]phenyl}quinazoline], for which the pIC50 in experiment [1] was 6.14; in experiment [2], 7.70.
Taken in the same sequence, the figures for `O=S(=O)(CCCO)c1cccc(Oc2ccc(F)c(-c3ncnc4c(Cl)cccc34)c2)c1` [Example 73, 3-({3-[3-(8-chloroquinazolin-4-yl)-4-fluorophenoxy]phenyl}sulfonyl)propan-1-ol] were 5.60 and 6.74.
For `CC(C)S(=O)(=O)c1cccc(Oc2ccc(F)c(-c3ncnc4c(Cl)cccc34)c2)c1` [Example 68, 8-chloro-4-(2-fluoro-5-{[3-(1-methylethyl)sulfonyl]phenoxy}phenyl)quinazoline], in that order: 6.22 and 7.82.
For `CS(=O)(=O)c1cccc(Oc2cccc(-c3ncnc4c(C(F)(F)F)cccc34)c2)c1` [Example 4, 4-{3-[3-(Methylsulfonyl)phenoxy]phenyl}-8-(trifluoromethyl)quinazoline], the pIC50 is 5.74 in experiment [1] and 6.82 in experiment [2].
For `CCS(=O)(=O)c1ccc(Oc2cccc(-c3ncnc4c(C(F)(F)F)cccc34)c2)cc1` [Example 11, 4-{3-[4-(ethylsulfonyl)phenoxy]phenyl}-8-(trifluoromethyl)quinazoline], in that order: < 6.00 and 5.65.
For `CCS(=O)(=O)c1cccc(Oc2ccc(F)c(-c3ncnc4c(Cl)cccc34)c2)c1` [Example 67, 8-chloro-4-{2-fluoro-5-[3-(ethylsulfonyl)phenoxy]phenyl}quinazoline], in that order: 6.15 and 7.44.
For `CS(=O)(=O)c1cccc(COc2ccc(F)c(-c3ncnc4c(C(F)(F)F)cccc34)c2)c1` [Example 56, 4-(2-fluoro-5-{[3-(methylsulfonyl)benzyl]oxy}phenyl)-8-(trifluoromethyl)quinazoline], in that order: 6.10 and 7.36.

The record behind these values is US20100273816A1, “Quinazoline Compounds” (priority 2007, published 2010).
